Columns and labels:
TropB [1] = biological target: TropB (Talaromyces stipitatus, UniProt B8M9J8, R206Q); experiment: change in absorbance at […] nm; assay type: binding
TropB [2] = biological target: TropB (Talaromyces stipitatus, UniProt B8M9J8); experiment: change in absorbance at […] nm; assay type: binding
Sequence of TropB (Talaromyces stipitatus, UniProt B8M9J8) (B8M9J8 whole entry): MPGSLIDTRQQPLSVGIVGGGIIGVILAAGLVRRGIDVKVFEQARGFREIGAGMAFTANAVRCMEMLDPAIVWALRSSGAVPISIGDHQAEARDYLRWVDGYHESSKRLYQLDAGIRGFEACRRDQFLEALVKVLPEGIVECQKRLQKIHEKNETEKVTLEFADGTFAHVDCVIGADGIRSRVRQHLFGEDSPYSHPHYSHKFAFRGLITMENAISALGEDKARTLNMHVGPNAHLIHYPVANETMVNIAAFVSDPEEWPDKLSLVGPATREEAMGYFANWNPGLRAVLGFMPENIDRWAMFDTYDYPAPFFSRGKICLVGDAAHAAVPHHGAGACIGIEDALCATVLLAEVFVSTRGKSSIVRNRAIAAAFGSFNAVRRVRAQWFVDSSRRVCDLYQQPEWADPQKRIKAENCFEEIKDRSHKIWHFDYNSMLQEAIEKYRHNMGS

Sequence of TropB (Talaromyces stipitatus, UniProt B8M9J8, R206Q) (B8M9J8 whole entry R206Q): as the sequence (B8M9J8 whole entry) above, with R206Q counted along it

Kd (TropB [1]): 32 ± 4 µM
Kd (TropB [2]): 21 ± 2 µM
SMILES: Cc1cc(O)c(C)c(O)c1C=O [compound 1, 3-methylorcinaldehyde]

Source: publication PMC6658140 (ACS catalysis, 2019)
